Results as given in US6858646B2, “Neuroprotective composition and uses thereof” (Universite du Quebec a Montreal, priority 1999, dated 2005).

Experiments:
P19 neurons [1] = test: Protection of P19 neurons exposed to XA/XAO mediated oxidative stress (Alamar Blue viability); format: cell-based; details: 1× concentration
Method: Culture and neuronal differentiation of P19 embryonal carcinoma cells were done according to the procedures of Jeannotte et al. (1997) with the following modifications for microscale adaptation of cultures to 96-well plates: cell aggregates obtained at day 4 of the treatment of P19 cells with retinoic acid were trypsinized with 0.025% trypsin-1 mM EDTA in PBS and subjected to mechanical passages to obtain individual cells which were seeded in gelatin-precoated microwells at a density of 0.7-1×10^5 cells per well. […]
Another protocol was also tested for XA/XAO system to generate a milder oxidative stress. […] At end of stress, PBS was changed for Neurobasal-minus AO medium and cells were incubated for 7 h, readily in the presence of Alamar Blue, for viability measurement.
(§1) Fifteen (15) μl Alamar Blue was added to the culture medium of each well (200 μl) and incubation resumed for 7 h at 37° C., 5% CO2. A 180-μl aliquot of each culture medium was read by fluorescence using a wavelength of 544 nm for excitation and of 590 nm for emission; fluorescence increases upon reduction of the dye by metabolic activity of viable cells. Fluorescence determinations were done with a fluorimeter adapted to read microplates. Viability is reported as %, comparing the fluorescence units obtained for cells exposed to oxidative conditions to those of control (non-exposed) cells.

[2] = In vitro antioxidant capacity: inhibition of DPD oxidation by H2O2, in absence of cells
Method: Oxidation of N,N-diethyl-p-phenylenediamine (DPD) by a prooxidant system was used as a general reporter of the amount of ROS generated by that system (Anonymous, 1985; Chahine et al., 1991). Antioxidant capacity of preparations of TRIAD (or of its components) was defined as the ability to inhibit the oxidation of DPD by prooxidants.
To estimate the antioxidant capacity of TRIAD preparations in the prooxidant conditions used with P19 neurons, DPD was added to a final concentration of 32 mM to 200 μl of each prooxidant system described above (see section 2.4) and incubated for the times tested with the cells. At the end of incubation, the amount of oxidized DPD was determined at 560 nm using a spectrophotometer adapted to microscale measurement.

P19 neurons [3] = format: cell-based; details: for Protection against oxidative stress caused by hydrogen peroxide: assayed at 0.5× suboptimal concentration, 0 to 10 mM H2O2, 30 min
Method: Culture and neuronal differentiation of P19 embryonal carcinoma cells were done according to the procedures of Jeannotte et al. (1997) with the following modifications for microscale adaptation of cultures to 96-well plates: cell aggregates obtained at day 4 of the treatment of P19 cells with retinoic acid were trypsinized with 0.025% trypsin-1 mM EDTA in PBS and subjected to mechanical passages to obtain individual cells which were seeded in gelatin-precoated microwells at a density of 0.7-1×10^5 cells per well. The newly seeded cells (neurons) were cultured in supplemented Neurobasal medium (Neurobasal® containing 0.5 mM L-glutamine and 0.5% B27 supplement) until exposure to oxidative conditions at day 7. Because this defined serum-free medium sustains growth of P19 neurons (Yao et al., 1995) but discourages the proliferation of fibroblasts, another cell derivative of the differentiation of P19 cells with retinoic acid (McBurney, 1993; Jeannotte et al., 1997), the cell populations in microwells were composed mostly of neurons (≦95%).
The prooxidant systems tested with P19 neurons were XA/XAO, H2O2, and H2O2/Fe^+2. Before neurons were exposed to either one of these systems, they were carefully washed with PBS and then incubated at 37° C., in an atmosphere of 95% ambient air and 5% CO2, and in the specific conditions of each system, as follows: i) from 0 to 90 min in the presence of PBS containing 500 μM XA and 50 mU/ml XAO, with the enzyme added last to start the reaction; ii) for 30 min in the presence of PBS containing 0 to 10 mM H2O2 with peroxide added last; and iii) for 30 min in the presence of PBS containing 0 to 10 mM H2O2 plus 50 μM FeCl2, with peroxide added last. Conditions were initially taken from Cini et al. (1994) for XA/XAO, from Desagher et al. (1996) for H2O2, and from Takemura et al. (1994) for H2O2/Fe^+2 systems respectively, and adapted to produce dose- or time-dependent cell mortality in P19 neurons. The first studies done with the H2O2/Fe^2+ system included the addition of 500 μM ascorbic acid; however, since responses of P19 neurons were similar whether or not ascorbic acid was present, this vitamin was omitted in subsequent experiments.
When TRIAD or its components were tested for their antioxidant action, they were administered to cells just prior the addition of XAO or H2O2. After incubation of cells under oxidative conditions, the prooxidant medium was removed and replaced with 200 μl of supplemented Neurobasal-minus AO (Neurobasal® containing L-glutamine and the B27-minus AO supplement). B27-minus AO is a version of B27 supplement sold by Gibco-BRL from which normally present antioxidants (AO=vitamin E, catalase, SOD and GSH) have been removed. Cells were incubated in this Neurobasal-minus AO medium for 16 h, at 37° C., 5% CO2, and for a further 7 h in the same medium but in the presence of Alamar Blue for viability measurement.
as §1

SMILES	Protection against neuronal death caused by XA/XAO (P19 neurons [1]; 500 μM XA, 50 mU/mL XAO, 0-90 min)	Protective effect against XA/XAO (P19 neurons [1]; from 30 to 90 min of incubation with XA/XAO)	Inhibition of the oxidation of DPD by H2O2 [2]	Contribution to TRIAD protective effect (P19 neurons [3]; H2O2/Fe2+ prooxidant system)	Protection against oxidative stress caused by hydrogen peroxide (P19 neurons [3])	Share of the protective effect of TRIAD (P19 neurons [3]; at low hydrogen peroxide concentrations)	Contribution to the neuroprotective action of TRIAD against H2O2-induced injury (P19 neurons [3]; cultured neurons)	LD50 (P19 neurons [3]; mouse, 30 min)	Cell mortality (P19 neurons [3]; mouse, 30 min, 1 mM)
CC(=O)C(=O)[O-].[Na+] [pyruvate, sodium pyruvate]	protected only slightly less than TRIAD 1×	remained stable	substantial although not total antioxidant effect	contributed for most of TRIAD protective effect	substantial and stable protection up to 10 mM H2O2	half	60%	–	–
Cc1c(C)c2c(c(C)c1O)CC[C@@](C)(CCC[C@H](C)CCC[C@H](C)CCCC(C)C)O2 [vitamin E, α-tocopherol]	–	–	–	–	did not provide protection	–	–	–	–
OO [hydrogen peroxide, reference compound]	–	–	–	–	–	–	–	0.3 mM	approximately 70%
